The values below come from patent publication US11046684B2, “Compound for selectively inhibiting kinase and use thereof” (SHANGHAI ZHEYE BIOTECHNOLOGY LIMITED-LIABILITY COMPANY, priority 2017, dated 2021).

The IC50 is the concentration needed to halve the response being measured.

Data set [1] deals with T1, FGFR1 kinase recombinant protein (Homo sapiens, UniProt P11362).
T1 construct: purchased Promega
The data set is described as follows: Inhibition of FGFR kinase activity, ADP-Glo method. The class given is biochemical. Conditions: 30 min preincubation. On the procedure: (§1) The inhibitory activities of the test substances on FGFR kinase were determined by the ADP-Glo method. The human FGFR1, FGFR2 and FGFR4 kinase recombinant proteins and kinase activity assay kit ADP-Glo™ were purchased from Promega, and the FGFR3 kinase recombinant protein was purchased from BPS Bioscience. The test substance, which was diluted gradiently from 1000 nM, was incubated with the FGFR1, FGFR2, FGFR3 or FGFR4 kinase recombinant protein for 30 minutes, reacted with the substrate in the presence of ATP, and ADP-Glo™ detected the generated ADP and further produced chemiluminescence signals. Microplate reader (Perkin Elmer, Envision) were used to determine the reading for each well, and the origin 7.5 was used to calculate and analyze the IC50, i.e. the concentration at which 50% inhibition occurred.
(§2) The inhibition of the compounds of the present invention on FGFR1-4 kinase activity was measured by the above test, and the measured IC50 (nM) values are shown in Table 1.
(ADP-Glo turns the ADP formed in a reaction into a luminescent signal.)

The target of data set [2] is T2, FGFR2 kinase recombinant protein (Homo sapiens, UniProt P21802).
T2 construct: purchased Promega
Nature of the data set: Inhibition of FGFR kinase activity, ADP-Glo method. Conditions: 30 min preincubation. The class given is biochemical. On the procedure:
as §1, §2

Data set [3] deals with T3, FGFR3 kinase recombinant protein (Homo sapiens, UniProt P22607).
T3 construct: purchased BPS Bioscience
The data set is described as follows: Inhibition of FGFR kinase activity, ADP-Glo method. The class given is biochemical. The settings on record: 30 min preincubation. On the procedure:
as §1, §2

The target of data set [4] is T4, FGFR4 kinase recombinant protein (Homo sapiens, UniProt P22455).
T4 construct: purchased Promega
The data set is described as follows: Inhibition of FGFR kinase activity, ADP-Glo method. In kind it is biochemical. The settings on record: 30 min preincubation. As for the experimental part: as §1, §2

In the next data set the test system is HUH-7. Nature of the data set: HCC cell proliferation inhibition, SRB method. In kind it is cell-based. Conditions: Homo sapiens, 72 hours. As for the experimental part:
(§3) The inhibitory activities of the compounds of the examples on cell proliferation in vitro were tested using five hepatocellular carcinoma cell lines: Hep3B, Huh7, JHH-7, SK-hep-1, SNU423. The above cells were all from ATCC (American Type Culture Collection). Among them, Hep3B, Huh-7, JHH-7 these three cell lines all have FGF19 gene amplification (increased copy number) and increased mRNA expression level, as well as high level expression of FGFR4 and KLB gene mRNA; SK-hep-1, SNU423 cell lines have no FGF19 gene amplification and the expression level of FGF19 mRNA was very low (Barretina J, Caponigro G, et al. Nature 2012; 483: 603-7.).
(§4) Cell proliferation was measured using the SRB (Sulforhodamine-B, sulforhodamine B) method. The cells were cultured to a cell fusion of more than 90% and then trypsinized. After counting, the cells were inoculated into 96-well plates at 6000 cells/well. After adherent culture overnight, the test compound was dissolved in DMSO and diluted with complete medium, added to the culture wells to form a 5-fold dilution of 10 concentration gradients from 10 μM. The cells were incubated for further 72 hours, 50 μl of 50% trichloroacetic acid was added to each well and fixed at 4° C. for 1 hour. The trichloroacetic acid in each well was discarded and washed 5 times with 300 μl of double distilled water. After drying at room temperature, 50 μl of 0.4% SRB dye solution (1% acetic acid/0.4% SRB) was added to each well to react for 15 min. The dye solution of each well was discarded, washed 6-7 times with 1% acetic acid, and dried at room temperature. 200 μl of 10 mM Tris solution (pH=10.5) was added to each well and shaken until the solution was clear. The absorbance at 490 nm of each well was measured by a microplate reader. The reading of the wells where the concentration of the test compound was 0 was used as a control, and fitted with Origin 7.5 software, the IC50 value (nM) of the test substance for inhibiting cell proliferation was calculated.
(§5) The antitumor cell proliferation activities of the compounds of the present invention were measured by the above test, and the measured IC50 (nM) values are shown in Table 2.
On the technique in general: The SRB assay estimates cell density from bound dye.

The next data set deals with Hep3B. The data set is described as follows: HCC cell proliferation inhibition, SRB method. The class given is cell-based. Conditions: Homo sapiens, 72 hours. As for the experimental part:
as §3, §4, §5

A further data set concerns JHH-7. The data set is described as follows: HCC cell proliferation inhibition, SRB method. The class given is cell-based. The settings on record: JHH7, 72 hours. On the procedure:
as §3, §4, §5

A further data set has as its system SK-hep-1. The data set is described as follows: HCC cell proliferation inhibition, SRB method. The class given is cell-based. Conditions: Homo sapiens, SK-HEP1, 72 hours. As for the experimental part: as §3, §4, §5
A further data set deals with SNU387. Nature of the data set: HCC cell proliferation inhibition, SRB method. In kind it is cell-based. Conditions: Homo sapiens, SNU-387, 72 hours. On the procedure: [Worded in the source for another cell line; this cell line is reported under the same test.] as §3, §4, §5
Data set [5] deals with Hep3B transplantation tumor. The data set is described as follows: HCC cell subcutaneous transplantation tumor growth inhibition test in nude mice. The class given is in vivo. The settings on record: for growth inhibition of the transplantation tumor: 50 mg/kg, intragastric, BID 21 days, Hep3B nude mice; for adverse reactions (water and food take, activity, body weight) during administration: all dose groups 50, 100, 150 mg/kg BID, 21 days, tumor-bearing nude mice. As for the experimental part: The Hep3B cells in the logarithmic growth phase were cultured and collected, and subcutaneously inoculated into the right back of nude mice (female Balb/c Nude mice, from Beijing Vitalriver) at 1×10^7 cells/mouse. When the tumor grew to 50-300 mm^3, tumor-bearing nude mice were randomly grouped, 6 animals per group. Subsequently, each group of animals was administered at the following dose, and the day of the first dose was defined as the first day of the test.
Blank solvent (ultra-pure water) control group, compound 1, compound 2 were respectively set to 50 mg/kg, 100 mg/kg, 150 mg/kg three dose groups, intragastric administration, twice a day (BID), for 21 consecutive days. The state of the animals was observed daily during the administration; the body weight was measured once a week before the first administration; and the body weight was measured twice a week after the start of the administration. The size of the transplantation tumor was measured every 3 days after the start of administration. Tumor volume (TV)=½×a×b^2, wherein, a and b represent the length and width of the tumor, respectively. The relative tumor volume (RTV) was calculated based on the measured results, RTV=Vt/V0×100, wherein V0 is the measured tumor volume on the day of the cage (i.e., day 0), and Vt is the tumor volume at each measurement.
After establishing the Hep3B nude mice transplantation tumor model according to the method described above, the mice were divided into three groups and intragastrically administered with a blank solvent (ultra-pure water) control, compound 1 (15 mg/kg, BID), sorafenib (prepared according to the method described in the literature CN1721397A and identified) respectively, 30 mg/kg, once a day (QD), for 21 consecutive days. The growth inhibition on the transplantation tumor of the test substances, animal status and body weight were evaluated in the same manner as above. The tumor volume (TV) was measured and the tumor inhibition rate was calculated according to the tumor inhibition rate (TGI)=(1−T/C)×100%. C: average tumor volume of the control group; T: average tumor volume of the administration group.

The test system of data set [6] is HCC cells with FGF19 gene amplification. The data set is described as follows: HCC cell line panel proliferation, selectivity conclusion. In kind it is cell-based. Conditions: conclusion from Table 2. As for the experimental part: as §3, §4

T4 sequence (P22455 22-802): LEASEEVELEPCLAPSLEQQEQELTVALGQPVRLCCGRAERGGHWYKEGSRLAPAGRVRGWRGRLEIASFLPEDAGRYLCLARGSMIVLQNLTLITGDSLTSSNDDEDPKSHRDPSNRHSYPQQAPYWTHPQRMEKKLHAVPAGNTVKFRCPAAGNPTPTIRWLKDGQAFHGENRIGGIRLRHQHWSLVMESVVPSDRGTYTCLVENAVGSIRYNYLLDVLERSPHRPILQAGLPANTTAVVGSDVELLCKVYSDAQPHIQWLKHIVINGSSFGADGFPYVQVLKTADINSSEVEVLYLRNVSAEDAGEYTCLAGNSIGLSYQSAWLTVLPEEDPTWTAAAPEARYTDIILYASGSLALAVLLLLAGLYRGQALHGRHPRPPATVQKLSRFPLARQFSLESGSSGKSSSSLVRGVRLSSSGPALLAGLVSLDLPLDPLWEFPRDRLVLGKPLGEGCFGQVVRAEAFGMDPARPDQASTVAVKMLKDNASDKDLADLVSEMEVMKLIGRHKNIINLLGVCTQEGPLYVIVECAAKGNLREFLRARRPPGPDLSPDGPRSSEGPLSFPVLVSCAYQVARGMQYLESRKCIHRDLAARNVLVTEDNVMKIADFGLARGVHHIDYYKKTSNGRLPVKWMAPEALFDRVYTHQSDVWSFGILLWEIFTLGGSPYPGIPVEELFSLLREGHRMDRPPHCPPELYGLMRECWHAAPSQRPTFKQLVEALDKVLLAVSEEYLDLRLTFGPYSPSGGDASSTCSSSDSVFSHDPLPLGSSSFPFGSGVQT
T2 sequence (P21802 22-821): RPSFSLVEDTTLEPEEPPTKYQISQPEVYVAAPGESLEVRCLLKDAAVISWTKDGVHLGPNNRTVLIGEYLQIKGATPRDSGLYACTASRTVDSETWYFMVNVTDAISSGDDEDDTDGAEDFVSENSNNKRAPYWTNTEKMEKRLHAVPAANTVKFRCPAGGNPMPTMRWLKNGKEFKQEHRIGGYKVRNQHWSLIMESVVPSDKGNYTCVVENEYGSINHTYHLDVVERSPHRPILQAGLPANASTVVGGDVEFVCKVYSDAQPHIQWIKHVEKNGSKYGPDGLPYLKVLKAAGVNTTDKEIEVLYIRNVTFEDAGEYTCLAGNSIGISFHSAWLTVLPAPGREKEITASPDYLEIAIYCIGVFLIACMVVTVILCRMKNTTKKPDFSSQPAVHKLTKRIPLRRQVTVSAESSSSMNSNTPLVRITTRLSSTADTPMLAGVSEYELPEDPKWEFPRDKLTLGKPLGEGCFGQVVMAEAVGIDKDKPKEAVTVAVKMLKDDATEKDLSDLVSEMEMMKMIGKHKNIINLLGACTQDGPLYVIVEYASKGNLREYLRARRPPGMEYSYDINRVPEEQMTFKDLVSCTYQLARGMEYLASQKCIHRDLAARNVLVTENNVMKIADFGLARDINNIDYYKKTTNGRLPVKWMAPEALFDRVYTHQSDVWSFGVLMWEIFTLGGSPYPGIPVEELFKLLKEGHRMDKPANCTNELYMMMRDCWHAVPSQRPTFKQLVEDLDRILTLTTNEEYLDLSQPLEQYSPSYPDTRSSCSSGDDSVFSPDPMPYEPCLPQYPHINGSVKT
T1 sequence (P11362 22-822): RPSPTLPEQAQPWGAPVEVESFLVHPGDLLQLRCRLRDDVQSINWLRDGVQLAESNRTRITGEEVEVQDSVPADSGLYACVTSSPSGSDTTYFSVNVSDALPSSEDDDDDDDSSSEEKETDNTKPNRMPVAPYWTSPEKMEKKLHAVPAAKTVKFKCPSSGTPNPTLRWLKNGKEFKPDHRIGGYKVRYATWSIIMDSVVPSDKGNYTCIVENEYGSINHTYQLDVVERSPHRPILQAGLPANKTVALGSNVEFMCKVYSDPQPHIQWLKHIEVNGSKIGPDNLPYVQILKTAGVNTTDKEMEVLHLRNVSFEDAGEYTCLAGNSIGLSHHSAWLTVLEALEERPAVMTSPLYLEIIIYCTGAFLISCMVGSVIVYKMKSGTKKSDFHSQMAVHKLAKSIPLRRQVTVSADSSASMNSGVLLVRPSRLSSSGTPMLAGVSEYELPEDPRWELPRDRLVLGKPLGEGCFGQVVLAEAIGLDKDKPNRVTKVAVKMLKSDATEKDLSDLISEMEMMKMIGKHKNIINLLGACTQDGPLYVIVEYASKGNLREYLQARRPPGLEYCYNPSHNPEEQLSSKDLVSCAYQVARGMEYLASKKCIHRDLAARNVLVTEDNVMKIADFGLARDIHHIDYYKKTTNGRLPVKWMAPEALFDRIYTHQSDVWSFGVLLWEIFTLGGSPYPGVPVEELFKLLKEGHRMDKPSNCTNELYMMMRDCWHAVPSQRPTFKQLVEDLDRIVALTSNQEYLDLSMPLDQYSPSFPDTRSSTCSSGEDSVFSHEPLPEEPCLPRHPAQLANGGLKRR
T3 sequence (P22607 23-806): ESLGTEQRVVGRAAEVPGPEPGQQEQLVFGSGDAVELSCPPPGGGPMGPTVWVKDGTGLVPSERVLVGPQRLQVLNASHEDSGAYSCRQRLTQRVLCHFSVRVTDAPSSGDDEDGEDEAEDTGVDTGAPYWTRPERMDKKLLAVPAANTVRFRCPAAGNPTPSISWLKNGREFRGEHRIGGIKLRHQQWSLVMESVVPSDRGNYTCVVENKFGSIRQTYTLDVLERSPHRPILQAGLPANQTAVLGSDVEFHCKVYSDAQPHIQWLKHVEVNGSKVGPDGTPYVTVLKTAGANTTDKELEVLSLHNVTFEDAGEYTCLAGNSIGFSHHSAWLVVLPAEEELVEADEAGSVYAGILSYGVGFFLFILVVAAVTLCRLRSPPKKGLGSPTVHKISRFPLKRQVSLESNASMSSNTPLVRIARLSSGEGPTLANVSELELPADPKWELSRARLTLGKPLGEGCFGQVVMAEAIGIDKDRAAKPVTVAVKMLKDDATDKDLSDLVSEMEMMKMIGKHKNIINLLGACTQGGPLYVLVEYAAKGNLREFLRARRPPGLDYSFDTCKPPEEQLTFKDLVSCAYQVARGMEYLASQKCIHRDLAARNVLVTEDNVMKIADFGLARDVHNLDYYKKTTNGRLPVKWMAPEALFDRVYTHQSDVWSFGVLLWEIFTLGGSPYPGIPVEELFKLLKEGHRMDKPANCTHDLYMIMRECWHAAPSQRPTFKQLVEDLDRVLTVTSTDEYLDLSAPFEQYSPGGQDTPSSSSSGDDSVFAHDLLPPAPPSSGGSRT

With `C#CCNc1cc(NC(=O)N2CCCc3cc(CN4CCN(C)CC4=O)c(C=O)nc32)ncc1C#N` [Compound 1], the IC50 in data set [1] was > 1000 nM; in data set [2] it was > 1000 nM; in [3] it was > 1000 nM; in [4] it was 0.41 nM; in the data set with HUH-7 it was 4 nM; with Hep3B it was 0.35 nM. The concentration for half-maximal inhibition (IC50) in the data set with JHH-7 was 3 nM; with SK-hep-1, > 1000 nM; in the data set on SNU387, > 1000 nM. Moreover, the “growth inhibition of the transplantation tumor” value in data set [5] is “significant”. The “adverse reactions (water and food take, activity, body weight) during administration” value in data set [5] is reported as “no adverse reactions occurred”. Moreover, the “efficacy compared with sorafenib 30 mg/kg QD” value in data set [5] (compound 1 15 mg/kg BID, Hep3B nude mouse transplantation tumor model) is “superior to that of sorafenib”. Moreover, in [6], the “selective inhibitory effect on HCC cells with FGF19 gene amplification” value (shortened to “selective inhibitory effect on HCC cells”) is “significant selective inhibitory effect”.
On to `C#CCCNc1cc(NC(=O)N2CCCc3cc(CN4CCN(C)CC4=O)c(C=O)nc32)ncc1C#N` [Compound 2], for which the 50% inhibitory concentration (IC50) in data set [1] is > 1000 nM; in data set [2], > 1000 nM; in data set [3], > 1000 nM; in [4], 0.33 nM; with HUH-7 it was 2.9 nM; in the data set on Hep3B it was 0.4 nM. In addition, the values for the IC50 in the data set on JHH-7, in the data set with SK-hep-1 and in the data set with SNU387 were 2.6 nM, > 1000 nM and > 1000 nM, respectively. In addition, the “growth inhibition of the transplantation tumor” value in [5] was “significant”. For the same compound, the “adverse reactions (water and food take, activity, body weight) during administration” value in data set [5] is “no adverse reactions occurred”. The “selective inhibitory effect on HCC cells” value in [6] is “significant selective inhibitory effect”.
Turning to `C#CCCNc1cc(NC(=O)N2CCCc3cc(CN4CCOCC4=O)c(C=O)nc32)ncc1C#N` [Compound 3], the half-inhibitory concentration (IC50) in data set [1] was > 1000 nM; in data set [2], > 1000 nM; in [3], > 1000 nM; in [4], 0.62 nM; in the data set with HUH-7 it was 5.7 nM; in the data set on Hep3B, 0.62 nM. The 50% inhibitory concentration (IC50) in the data set with SNU387 is > 1000 nM. For the same compound, the “selective inhibitory effect on HCC cells” value in [6] is reported as “significant selective inhibitory effect”.
`[2H]C([2H])([2H])N1CCN(Cc2cc3c(nc2C=O)N(C(=O)Nc2cc(NCCC#C)c(C#N)cn2)CCC3)C(=O)C1` [Compound 4]: the IC50 is > 1000 nM in data set [1]; > 1000 nM in data set [2]; > 1000 nM in data set [3]; 0.37 nM in data set [4]; 2.8 nM with HUH-7; 0.36 nM with Hep3B. Besides, in the data set on SNU387, the half-inhibitory concentration (IC50) is > 1000 nM. Moreover, the “selective inhibitory effect on HCC cells” value in data set [6] is reported as “significant selective inhibitory effect”.
Turning to `C#CCCCNc1cc(NC(=O)N2CCCc3cc(CN4CCN(C)CC4=O)c(C=O)nc32)ncc1C#N` [Compound 6], the half-maximal inhibitory concentration (IC50) in data set [1] is > 1000 nM; in data set [2] it was > 1000 nM; in data set [3] it was > 1000 nM; in [4] it was 0.59 nM; in the data set with HUH-7 it was 4.9 nM; with Hep3B, 0.53 nM. Besides, the IC50 in the data set with SNU387 was > 1000 nM. For the same compound, in [6], the “selective inhibitory effect on HCC cells” value is listed as “significant selective inhibitory effect”.
